Several values for one entry are separate records, joined by “and”; a condition that tells them apart may be missing. Equal entries are not always repeated.

In one series the target is T1, Aβ (1-42) (Homo sapiens, UniProt P05067).
T1 construct: Required Aβ (1-42) (California Peptide) was dried from its hexafluoroisopropanol (HFIP) stock solution; purchased California Peptide
Description: BATYM assay (Aβ (1-42) aggregation, Thioflavin T fluorescence). Type of series: biochemical. To be noted: Aβ 1-42 final concentration 100 μM, 37° C., 1 day, letter = synthetic lot. A digest of the protocol: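 Aβ (1-42) (100 μM final, PBS pH 7.4 from DMSO) incubated with compound at 37° C. for 1 day. Aggregation read by ThT (30 μM, glycine-NaOH pH 8.5) fluorescence, ex 440/em 485 nm; inhibition as fluorescence reduction corrected for compound-alone signal, IC50 by curve fitting from two experiments in triplicate.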

For series [1], the target named is T2, Aβ(1-40) (Homo sapiens, UniProt P05067).
T2 construct: […]; purchased Bachem, Torrance, Calif
T2 sequence (P05067 672-711 limits assumed): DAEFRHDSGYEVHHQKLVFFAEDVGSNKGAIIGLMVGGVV
Description: BASST (Beta-Amyloid Self-Seeding, Thioflavin T), inhibitors of self-seeded amyloid fibril growth. As to conditions: 30 μM soluble Aβ(1-40), 37° C., 3 to 5 hours, thioflavin T fluorescence; replicate values; letter = synthetic lot; read-out: BASST (IC50 = μM). Type of series: biochemical. A digest of the protocol:
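Self-seeded Aβ(1-40) fibril growth was run in 50 mM sodium phosphate pH 7.5, 100 mM NaCl, 0.02% NaN3, 1 M urea. Compounds were tested in 3-fold serial dilutions (top 100 μM final): 10 min on ice, then 3–5 h at 37 °C. Fibrils were read by 5 μM thioflavin T fluorescence (ex 440/em 485 nm).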

A further series addresses T3, Aβ (1-40) peptide (Homo sapiens, UniProt P05067).
T3 construct: 10 μL 0.5 mg/mL Aβ (1-40) peptide in 20% HFIP
Description: BAPA (Beta-Amyloid Peptide Aggregation, pH 6.0, filtration). To be noted: Aβ (1-40) 33 μM, pH 6.0, 2 to 4 hours at room temperature; replicate values; letter = synthetic lot. In kind it is biochemical. A digest of the protocol:
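Aggregation of human Aβ (1-40) peptide was measured in an endpoint filtration assay. The peptide was first reduced to monomer with hexafluoroisopropanol (HFIP), then used at 33 μM so it would aggregate at pH 6.0, and incubated for 2 to 4 hours at room temperature. Filter plates were washed with 100 μL phosphate buffer, impregnated with Meltilex, and counted on a Microbeta counter with background correction.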

Series [2] addresses T2, Aβ(1-40). Kind of series: BASSR (Beta-Amyloid Self-Seeding Radioassay), inhibitors of self-seeded amyloid fibril growth. Type of series: biochemical. As to conditions: 30 μM soluble Aβ(1-40) + 125I-labeled Aβ(1-40), 37° C., 3 to 5 hours; replicate values; letter = synthetic lot; ppt = precipitate; V-shaped = inhibition followed by precipitation. A digest of the protocol: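 Self-seeded growth of ^125I-labeled Aβ(1-40) fibrils in 50 mM sodium phosphate pH 7.5, 100 mM NaCl, 0.02% NaN3, 1 M urea; compound (3-fold dilutions from 100 μM final) preincubated 10 min on ice, then 3–5 h at 37° C. Fibrils collected by vacuum filtration on 0.2 μm filters and counted for radioactivity.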

T1 sequence (P05067 672-713 limits assumed): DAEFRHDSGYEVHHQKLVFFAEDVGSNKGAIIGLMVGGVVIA
T3 sequence (P05067 672-711 limits assumed): as the sequence (P05067 672-711 limits assumed) above

Take `Cc1ccc(CCc2ccc(Nc3ccc([N+](=O)[O-])cc3C(=O)O)cc2)cc1C` [Example 16, 2-{4-[2-(3,4-Dimethyl-phenyl)-ethyl]phenylamino}-5-nitrobenzoic acid]: the melting point is 214 to 216 °C. Also, the 50% inhibitory concentration (IC50) at Aβ (1-42) is 12 µM and 10.3 µM. The IC50 on Aβ(1-40) [1] was 3 µM (2×) and 1.1 µM and 800 nM and 600 nM. The 50% inhibitory concentration (IC50) against Aβ (1-40) peptide came out at 13 µM.

Turning to `CC(=O)Nc1ccc(CCc2ccc(Nc3ccccc3C(=O)O)cc2)cc1` [Example 35, 2-{4-[2-(4-Acetylaminophenyl)ethyl]phenylamino}benzoic acid], the melting point turned out to be 224 °C. In addition, the IC50 at Aβ (1-42) is more than 100 µM. Moreover, the concentration for half-maximal inhibition (IC50) at Aβ(1-40) [2] was more than 100 µM. The molecule further had an IC50 against Aβ (1-40) peptide of 154 µM.

`O=C(O)c1ccccc1Nc1ccc(CCCc2ccc(-n3cccc3)cc2)cc1` [Example 46, 2-(4-{3-[4-(1H-Pyrrol-1-yl)phenyl]propyl}phenylamino)benzoic acid] registered a melting point of 131 to 136 °C. This molecule also displayed a concentration for half-maximal inhibition (IC50) on Aβ (1-42) of 34.3 µM. Moreover, the half-inhibitory concentration (IC50) at Aβ(1-40) [2] was more than 100 µM. For the same molecule, the IC50 on Aβ(1-40) [1] worked out at 6 µM.

Regarding `CCN(CC)C(=O)c1ccc(CCCc2ccc(Nc3ccccc3C(=O)O)cc2)cc1` [Example 48, 2-{4-[3-(4-Diethylcarbamoylphenyl)propyl]phenylamino}benzoic acid], the melting point lay within 57 to 62 °C. Besides, the IC50 on Aβ (1-42) was more than 100 µM. Further, the IC50 at Aβ(1-40) [2] came to 25 µM. In addition, the half-maximal inhibitory concentration (IC50) at Aβ(1-40) [1] worked out at 10 µM.

The molecule `O=C(O)c1ccc(CCCc2ccc(Nc3ccccc3C(=O)O)cc2)cc1` [Example 49, 2-{4-[3-(4-Carboxyphenyl)propyl]phenylamino}benzoic acid] came in with a melting point of 236 to 239 °C. Further, at Aβ (1-42), the IC50 is more than 100 µM. Besides, at Aβ(1-40) [2], the concentration for half-maximal inhibition (IC50) was more than 100 µM. Moreover, the IC50 on Aβ(1-40) [1] was more than 100 µM.

As to `CCN(CC)Cc1ccc(CCCc2ccc(Nc3ccccc3C(=O)O)cc2)cc1` [Example 50, 2-{4-[3-(4-Diethylaminomethylphenyl)propyl]phenylamino}benzoic acid], the melting point turned out to be 137 °C. Moreover, the IC50 against Aβ (1-42) is more than 100 µM. In addition, on Aβ(1-40) [2], the IC50 is more than 100 µM. For the same molecule, the IC50 on Aβ(1-40) [1] was more than 100 µM.

The molecule `O=C(O)c1ccccc1Nc1ccc(CCCc2ccc(N3CCCC3)cc2)cc1` [Example 53, 2-{4-[3-(4-Pyrrolidin-1-yl-phenyl)-propyl]-phenylamino}-benzoic acid] displayed a melting point of 171 to 177 °C. Moreover, on Aβ (1-42), it took 30 µM to reach half-maximal inhibition (IC50). For the same molecule, on Aβ(1-40) [2], the IC50 was more than 100 µM. The 50% inhibitory concentration (IC50) at Aβ(1-40) [1] stood at 0.3 µM.

In the case of `O=C(O)c1ccccc1Nc1ccc(CCCc2cccc(N3CCCCC3)c2)cc1` [Example 54, 2-{4-[3-(3-Piperidin-1yl-phenyl)-propyl]-phenylamino}-benzoic acid], the melting point fell in the range of 59 to 61 °C. Also, the IC50 at Aβ (1-42) turned out to be 43.9 µM. On Aβ(1-40) [2], the IC50 was more than 100 µM. Besides, the IC50 on Aβ(1-40) [1] came to 0.4 µM.

Molecule `CCCCN1CCCc2cc(C=C3SC(=S)N(CCC(=O)O)C3=O)ccc21` [Example 57, 3-{5-[(1-Butyl-1,2,3,4-tetrahydroquinolin-6-yl)methylidene]-4-oxo-2-thioxo-thiazolidin-3-yl)propanoic acid] yielded a melting point of 214 to 215 °C. This molecule registered an IC50 at Aβ (1-42) of 4 µM. Besides, the IC50 on Aβ(1-40) [2] amounted to 4.8 µM. The concentration for half-maximal inhibition (IC50) on Aβ(1-40) [1] turned out to be 1.5 µM.

The molecule `CCCCN1CCCc2cc(C=C3SC(=S)N(CCCC(=O)O)C3=O)ccc21` [Example 58, 4-{5-[(1-Butyl-1,2,3,4-tetrahydroquinolin-6-yl)methylidene]-4oxo-2-thioxo-thiazolidin-3-yl)butanoic acid] yielded a melting point of 152 to 154 °C. Also, half-maximal inhibition against Aβ (1-42) (IC50) was put at 5.1 µM. Besides, on Aβ(1-40) [2], the IC50 turned out to be 3.5 µM. The IC50 at Aβ(1-40) [1] was 1 µM.

Turning to `O=C(O)c1cc([N+](=O)[O-])ccc1Nc1ccc(CCc2ccc(-c3ccccc3)cc2)cc1` [Example 62, 2-[4-(2-Biphenyl-4-yl-ethyl)phenylamino]-5-nitro-benzoic acid], the melting point was 239 to 244 °C. The same molecule yielded an IC50 on Aβ (1-42) of 8.98 µM. For the same molecule, the IC50 at Aβ(1-40) [2] is more than 100 µM. Besides, the IC50 at Aβ(1-40) [1] is 1.5 µM.

Regarding `O=C(O)c1cc(F)ccc1Nc1ccc(CCc2ccc(Cl)c(Cl)c2)cc1` [Example 71, 2-{4-[2-(3,4-Dichloro-phenyl)-ethyl]-phenylamino}-5-fluoro-benzoic acid], the melting point was 180 to 182 °C. For the same molecule, the concentration for half-maximal inhibition (IC50) at Aβ(1-40) [2] is more than 100 µM. Also, on Aβ(1-40) [1], the IC50 turned out to be 3 µM. Also, the concentration for half-maximal inhibition (IC50) at Aβ (1-40) peptide is more than 60 µM.

Take `O=C(O)c1cc([N+](=O)[O-])ccc1Nc1ccc(CCc2ccc(Cl)cc2Cl)cc1` [Example 77, 2-{4-[2-(2,4-Dichloro-phenyl)-ethyl]-phenylamino}-5-nitro-benzoic acid]: the melting point was in the range of 200.5 to 202.5 °C. Moreover, the IC50 against Aβ (1-42) was 9.49 µM. The half-inhibitory concentration (IC50) at Aβ(1-40) [2] is 18 µM and 15 µM. For the same molecule, the IC50 against Aβ (1-40) peptide is more than 60 µM.

In the case of `CCCCN(CCCC)c1ccc(CCc2ccc(Nc3ccc([N+](=O)[O-])cc3C(=O)O)cc2)cc1` [Example 79, 2-{4-[2-(4-Dibutylamino-phenyl)-ethyl]-phenylamino}-5-nitro-benzoic acid], the melting point is more than 260 °C. The half-inhibitory concentration (IC50) at Aβ (1-42) was 9.14 µM. In addition, the IC50 on Aβ(1-40) [1] was 1 µM and 300 nM (3×). Besides, the concentration for half-maximal inhibition (IC50) against Aβ (1-40) peptide is 51 µM.

With `COc1ccc(CCc2ccc(Nc3ccccc3C(=O)O)cc2)cc1OC` [Example 116, 2-{4-[2-(3,4-Dimethoxy-phenyl)-ethyl]-phenylamino}-benzoic acid], the melting point is 159 to 161 °C. Also, the IC50 at Aβ(1-40) [2] was more than 100 µM. For the same molecule, on Aβ(1-40) [1], the IC50 was 18 µM and 30 µM. This molecule showed a concentration for half-maximal inhibition (IC50) on Aβ (1-40) peptide of 96 µM.

Molecule `COc1ccc(Nc2ccc(CCCCc3ccc(Cl)c(Cl)c3)cc2)c(C(=O)O)c1` [Example 121, 2-{4-[4-(3,4-Dichloro-phenyl)-butyl]-phenylamino}-5-methoxy-benzoic acid] displayed a melting point of 155 to 158 °C. The concentration for half-maximal inhibition (IC50) on Aβ(1-40) [2] was more than 100 µM. At Aβ(1-40) [1], the concentration for half-maximal inhibition (IC50) was found to be 1 µM.

`O=C(O)c1ccccc1Nc1cccc(CCc2ccc(Cl)cc2)c1` [Example 123, 2-{3-[2-(4-Chloro-phenyl)-ethyl]-phenylamino}-benzoic acid]: the melting point fell in the range of 155 to 157 °C. Also, on Aβ (1-42), the IC50 is 70.8 µM and 85.2 µM. This molecule had a half-inhibitory concentration (IC50) on Aβ (1-40) peptide of more than 60 µM.

On to `Cc1ccc(CCc2cccc(Nc3ccccc3C(=O)O)c2)cc1C` [Example 124, 2-{3-[2-(3,4-Dimethyl-phenyl)-ethyl]-phenylamino}-benzoic acid], for which the melting point lay in the range of 182 to 184 °C. Also, the concentration for half-maximal inhibition (IC50) at Aβ (1-42) is 62.7 µM. Also, at Aβ(1-40) [2], the half-inhibitory concentration (IC50) was more than 100 µM. The half-inhibitory concentration (IC50) at Aβ(1-40) [1] was found to be 10 µM.

Molecule `O=C(O)c1ccccc1Nc1ccc(CCc2cccc(Cl)c2)cc1` [Example 128, 2-{4-[2-(3-Chloro-phenyl)-ethyl]-phenylamino}-benzoic acid] came in with a melting point of 152 to 154 °C. For the same molecule, at Aβ (1-42), the IC50 is 75 µM and > 60 µM. The same molecule registered a half-maximal inhibitory concentration (IC50) at Aβ (1-40) peptide of more than 60 µM.

Molecule `O=C(O)c1ccccc1Nc1ccc(CCc2ccc(Cl)cc2Cl)cc1` [Example 130, 2-{4-[2-(2,4-Dichloro-phenyl)-ethyl]-phenylamino}-benzoic acid] registered a melting point of 181 to 183 °C. For the same molecule, the IC50 at Aβ (1-42) is 47.5 µM. Also, the 50% inhibitory concentration (IC50) at Aβ(1-40) [2] is more than 100 µM. 238 µM corresponded to half-maximal inhibition against Aβ (1-40) peptide (IC50).

Consider `O=C(O)c1ccc(Nc2ccc(CCc3ccc(Cl)c(Cl)c3)cc2)cc1` [Example 132, 4-{4-[2-(3,4-Dichloro-phenyl)-ethyl]-phenylamino}-benzoic acid], for which the melting point was in the range of 214 to 215 °C. The half-maximal inhibitory concentration (IC50) against Aβ (1-42) was more than 100 µM. For the same molecule, on Aβ(1-40) [2], the IC50 was more than 100 µM. Also, on Aβ(1-40) [1], the IC50 stood at 10 µM.

In turn, `O=C(O)c1ccccc1Nc1ccc(-c2cc(Cl)cc(Cl)c2)cc1` [Example 137, 2-(3′,5′-Dichloro-biphenyl-4-ylamino)-benzoic acid] yielded a melting point of more than 220 °C. At Aβ(1-40) [2], the IC50 was more than 100 µM. At Aβ(1-40) [1], the half-maximal inhibitory concentration (IC50) was found to be 3 µM. Further, on Aβ (1-40) peptide, the 50% inhibitory concentration (IC50) amounted to 52 µM.

For the molecule `CCN(CC)c1ccc(Nc2ccc(CCc3ccc(Cl)c(Cl)c3)cc2)c(C(=O)O)c1` [Example 151, 2-{4-[2-(3,4-Dichloro-phenyl)-ethyl]-phenylamino}-5-diethylamino-benzoic acid], the melting point was 106 to 110 °C. This molecule came in with an IC50 on Aβ (1-42) of more than 100 µM. In addition, the IC50 at Aβ(1-40) [2] was more than 100 µM. Half-maximal inhibition at Aβ (1-40) peptide (IC50) was put at 108 µM.

For orientation: IC50 means the concentration at which inhibition is half-maximal. The melting point is the temperature, or range, at which the solid turns liquid.

The values are drawn from patent publication US6972287B1, “Method of inhibiting amyloid protein aggregation and imaging amyloid deposits” (Pfizer Inc., priority 1999, dated 2005).
